Data: BindingDB's records for doi:10.1021/jm00127a026 (Medical University of South Carolina, 1989)

Experiment: The apparent Km of compound as a substrate for partially purified mouse liver Folyl-polyglutamate synthase
Settings: read-out: Ki

Row | apparent Km [µM] | SMILES
1 | 1.2 | NCCCC(NC(=O)c1ccc(OCc2ccc3nc[nH]c(=O)c3c2)cc1)C(=O)O (stereo not given)
2 | 5.9 | NCCCC(NC(=O)c1ccc(OCc2ccc3nc(N)[nH]c(=O)c3c2)cc1)C(=O)O (stereo not given)
3 | 2.8 | NCCCC(NC(=O)c1ccc(SCc2ccc3nc(N)[nH]c(=O)c3c2)cc1)C(=O)O (stereo not given)
4 | 0.0017 | NCCCC(NC(=O)c1ccc(NCc2ccc3nc(N)nc(N)c3c2Cl)cc1)C(=O)O (stereo not given)
5 | 0.42 | NCCCC(NC(=O)c1ccc(SCc2ccc3nc[nH]c(=O)c3c2)cc1)C(=O)O (stereo not given)
